Values of other authors as cited in patent publication US20060159622A1, “Pharmacodynamic assay for inhibitors of 11-beta-hydroxysteroid dehydrogenase activity in animal tissues” (priority 2003, published 2006).

Test system: HSD
Settings: normal human volunteers

In the case of `CC1(C)[C@@H](OC(=O)CCC(=O)O)CC[C@]2(C)[C@H]3C(=O)C=C4[C@@H]5C[C@@](C)(C(=O)O)CC[C@]5(C)CC[C@@]4(C)[C@]3(C)CC[C@@H]12` [carbenoxolone], the insulin sensitivity is given as “increased insulin sensitivity”.
